Target: MDM2 (Homo sapiens, UniProt Q00987)
Experiment: HTRF MDM2-p53 binding (displacement) assay

Chain of MDM2 (Q00987 whole entry): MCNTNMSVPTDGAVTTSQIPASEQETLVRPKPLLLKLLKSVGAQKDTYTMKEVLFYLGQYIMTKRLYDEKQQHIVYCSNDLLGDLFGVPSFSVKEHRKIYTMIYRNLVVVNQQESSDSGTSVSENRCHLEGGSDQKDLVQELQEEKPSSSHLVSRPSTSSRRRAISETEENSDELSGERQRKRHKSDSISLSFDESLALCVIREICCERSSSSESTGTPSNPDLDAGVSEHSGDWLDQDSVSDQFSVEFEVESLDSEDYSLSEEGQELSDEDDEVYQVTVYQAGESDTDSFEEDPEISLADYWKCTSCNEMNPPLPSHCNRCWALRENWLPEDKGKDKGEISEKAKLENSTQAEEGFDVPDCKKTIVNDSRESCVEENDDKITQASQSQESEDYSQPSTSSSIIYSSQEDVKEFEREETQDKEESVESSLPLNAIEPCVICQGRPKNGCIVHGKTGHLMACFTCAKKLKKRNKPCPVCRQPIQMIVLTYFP
Chain of MDM2 (P04637 whole entry partner): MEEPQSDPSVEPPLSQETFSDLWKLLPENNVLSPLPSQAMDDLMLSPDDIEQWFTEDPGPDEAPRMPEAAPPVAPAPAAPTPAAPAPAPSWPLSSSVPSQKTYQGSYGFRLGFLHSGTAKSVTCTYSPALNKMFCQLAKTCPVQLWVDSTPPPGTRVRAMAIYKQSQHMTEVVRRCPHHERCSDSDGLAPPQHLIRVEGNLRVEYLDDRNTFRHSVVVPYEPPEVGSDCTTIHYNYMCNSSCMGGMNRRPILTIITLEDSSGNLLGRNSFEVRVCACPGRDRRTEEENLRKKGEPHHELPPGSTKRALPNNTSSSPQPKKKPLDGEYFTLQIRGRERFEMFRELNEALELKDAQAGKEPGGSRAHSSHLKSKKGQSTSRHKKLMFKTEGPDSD

Structure (SMILES): COCCOCCOCCOC(=O)N1[C@@H](CC(C)(C)C)[C@@]2(C(=O)Nc3cc(Cl)ccc32)[C@@H](c2cccc(Cl)c2F)[C@@H]1C(=O)Nc1ccc(C(N)=O)cc1OC [XR-2, 2-(2-(2-methoxyethoxy)ethoxy)ethyl-(2′S,3R,4′S,5′R)-5'-((4-carbamoyl-2-methoxyphenyl)carbamoyl)-6-chloro-4'-(3-chloro-2-fluorophenyl)-2′-neopentyl-2-oxospiro[indoline-3,3′-pyrrolidine]-1′-carboxylate]
- HTRF MDM2-p53 binding (displacement) assay: The homogeneous time-resolved fluorescence binding assay proved that XR-2 directly inhibited MDM2–p53 interaction

Source: article PMC9081362, “Novel MDM2 Inhibitor XR-2 Exerts Potent Anti-Tumor Efficacy and Overcomes Enzalutamide Resistance in Prostate Cancer” (Frontiers in Pharmacology, 2022)
